In patent US9073862B2, “Substituted 2-oxy-quinoline-3-carboxamides as KCNQ2/3 modulators” (Grünenthal GmbH, priority 2010, dated 2015):

How the values were obtained:
[1] = tested on: withdrawal reflex of the rat tail (tail flick) in response to a radiant heat beam; experiment: Low-intensity tail flick test (rat); type: in vivo; settings: po, peroral, read-out: Low intensity tail flick, rat, peroral, MPE (dose)
Experimental: Method II. Low-Intensity Tail Flick Test (Rat)
In the low-intensity tail flick test, the determination of the antinociceptive effect of the compounds according to the invention towards an acute noxious thermal stimulus is carried out by measuring the withdrawal reflex of the rat tail (tail flick) in response to a radiant heat beam (analgesia meter; model 2011 of the company Rhema Labortechnik, Hofheim, Germany) according to the method described by D'Amour and Smith (J. Pharm. Exp. Ther. 72, 74 79 (1941). To this end, the rats were placed in a plexiglas restrainer, and a low-intensity radiant heat beam (48° C.) was focused onto the dorsal surface of the tail root. The stimulus intensity was adjusted to result in a mean pre-drug control withdrawal latency of about 7 s, thus also allowing a supraspinal modulation of the spinally mediated acute nociceptive reflex. A cutoff time of 30 s was applied to avoid tissue damage. Male Sprague-Dawley rats (Janvier, Le Genest St. Isle, Frankreich) with weights of 200-250 g were used. 10 rats were used per group. Before administration of a compound according to the invention, the animals were pre-tested twice in the course of five minutes and the mean of these measurements was calculated as the pre-test mean. The antinociceptive effect was determined at 20, 40 and 60 min after peroral compound administration. The antinociceptive effect was calculated based on the increase in the tail withdrawal latency according to the following formula and is expressed as percentage of the maximum possible effect (MPE [%]): MPE=[(T1−T0)/(T2−T0)]*100
In this, T0 is the control latency time before and T1 the latency time after administration of the compound, T2 is the cutoff time and MPE is the maximum possible effect. Employing variant analysis (repeated measures ANOVA) allowed testing of statistically significant differences between the compounds according to the invention and the vehicle group. The significance level was set to p≦0.05. To determine the dose dependency, the particular compound according to the invention was administered in 3-5 logarithmically increasing doses, including a threshold dose and a maximum effective dose, and the ED50 values were determined with the aid of regression analysis. The ED50 calculation was performed at the time of maximum efficacy (usually 20 min after administration of the compounds).

KCNQ2/3 channels = biological target: T1, KCNQ2/3 channels (Homo sapiens, UniProt O43525+O43526); experiment: Fluorescence assay using a voltage sensitive dye (fluorimetry); type: cell-based; settings: CHO-K1 cells expressing KCNQ2/3 channels; for Emax: relative to retigabine = 100%, read-out: Fluorimetry % efficacy (retigabine = 100%)
T1 construct: expressed in transfected cells; host or cells: CHO-K1
Experimental: Method I. Fluorescence Assay Using a Voltage Sensitive Dye (Fluorimetry)
[…] CHO-K1 cells expressing KCNQ2/3 channels are cultivated adherently at 37° C., 5% CO2 and 95% humidity in cell culture bottles (e.g. 80 cm^2 TC flasks, Nunc) with DMEM-high glucose (Sigma Aldrich, D7777) including 10% FCS (PAN Biotech, e.g. 3302-P270521) or alternatively MEM Alpha Medium (1×, liquid, Invitrogen, #22571), 10% fetal calf serum (FCS) (Invitrogen, #10270-106, heat-inactivated) and the necessary selection antibiotics.
Before being sown out for the measurements, the cells are washed with 1×DPBS buffer Ca^2+/Mg^2+-free (e.g. Invitrogen, #14190-094) and detached from the bottom of the culture vessel by using Accutase (PAA Laboratories, #L11-007) (incubation with Accutase for 15 min at 37° C.). The cell number is determined using a CASY™ cell counter (TCC, Schärfe System). Depending on the optimal density for each individual cell line, 20,000-30,000 cells/well/100 μl are seeded onto 96-well Corning™ CellBIND™ assay plates (Flat Clear Bottom Black Polystyrene Microplates, #3340). Freshly seeded cells are then left to settle for one hour at room temperature, followed by incubation for 24 hours at 37° C., 5% CO2 and 95% humidity.
The voltage-sensitive fluorescent dye from the Membrane Potential Assay Kit (Red™ Bulk format part R8123 for FLIPR, MDS Analytical Technologies™) is prepared by dissolving the contents of one vessel Membrane Potential Assay Kit Red Component A in 200 ml of extracellular buffer (ES buffer, 120 mM NaCl, 1 mM KCl, 10 mM HEPES, 2 mM CaCl2, 2 mM MgCl2, 10 mM glucose; pH 7.4). After removal of the nutrient medium, the cells are washed once with 200 μl of ES buffer, then loaded for 45 min at room temperature in 100 μl of dye solution in the dark.
Fluorescence measurements are carried out in a BMG Labtech FLUOstar™, BMG Labtech NOVOstar™ or BMG Labtech POLARstar™ instrument (525 nm excitation, 560 nm emission, Bottom Read mode). After incubation with the dye, 50 μl of the test substances in the desired concentrations, or 50 μl of ES buffer for control purposes, are applied to the wells of the assay plate and incubated for 30 min at room temperature while being shielded from light. The fluorescence intensity of the dye is then measured for 5 min and the fluorescence value F1 of each well is thus determined at a given, constant time. 15 μl of a KCl solution are then added to each well (final concentration of potassium ions 92 mM). The change in fluorescence intensity is subsequently monitored until all the relevant values have been obtained (mainly 5-30 min). At a given time post KCl application, a fluorescence value F2 is determined, in this case at the time of the fluorescence peak.
For calculation, the fluorescence intensity F2 is corrected for the fluorescence intensity F1, and the activity (ΔF/F) of the target compound on the potassium channel is determined as follows:
In order to determine whether a substance has agonistic activity,
[formula] can be related to
[formula] of control wells.
[formula] is determined by adding to the well only the buffer solution instead of the test substance, determining the value F1K of the fluorescence intensity, adding the potassium ions as described above, and measuring a value F2K of the fluorescence intensity. F2K and F1K are then calculated as follows: […]
A substance has an agonistic activity on the potassium channel if
[formula] is greater than
Independently of the comparison of
[formula] it is possible to conclude that a target compound has agonistic activity if
[formula] increases dose dependently.
Calculations of EC50 and IC50 values are carried out with the aid of ‘Prism v4.0’ software (Graph Pad Software™).

Row | Compound | EC50 (KCNQ2/3 channels) | Emax (KCNQ2/3 channels) | inhibition in vivo at 10 mg/kg [1] | inhibition in vivo at 6.81 mg/kg [1]
1 | COc1nc2cc(C(F)(F)F)ccc2c(C)c1C(=O)NCCCC(C)(C)C [Example 29, N-(4,4-dimethyl-pentyl)-2-methoxy-4-methyl-7-(trifluoromethyl)-quinoline-3-carboxylic acid amide] | 28 nM | 244% | 28% | 
2 | CCOc1nc2cc(C#N)ccc2c(C)c1C(=O)NCc1ccc(F)cc1 [Example 35, 7-cyano-2-ethoxy-N-[(4-fluorophenyl)-methyl]-4-methyl-quinoline-3-carboxylic acid amide] | 82 nM | 112% |  | 32%

Continued, in another order:

Row | EC50 (KCNQ2/3 channels) | Emax (KCNQ2/3 channels) | Compound | inhibition in vivo at 10 mg/kg [1] | inhibition in vivo at 6.81 mg/kg [1]
3 | 58 nM | 111% | CCOc1nc2cc(C(F)(F)F)ccc2c(C)c1C(=O)NCc1cccc(C)c1 [Example 22, 2-ethoxy-4-methyl-N-(m-tolyl-methyl)-7-(trifluoromethyl)-quinoline-3-carboxylic acid amide] | 20% | 
4 | 53 nM | 108% | CCOc1nc2cc(C(F)(F)F)ccc2c(C)c1C(=O)NCc1ccc(F)c(C)c1 [Example 24, 2-ethoxy-N-[(4-fluoro-3-methyl-phenyl)-methyl]-4-methyl-7-(trifluoromethyl)-quinoline-3-carboxylic acid amide] |  | 17%
5 | 25 nM | 108% | Cc1c(C(=O)NCc2cccc(F)c2)c(OCC(F)(F)F)nc2cc(C(F)(F)F)ccc12 [Example 50, N-[(3-fluorophenyl)-methyl]-4-methyl-2-(2,2,2-trifluoro-ethoxy)-7-(trifluoromethyl)-quinoline-3-carboxylic acid amide] | 24% | 
